Source: patent US20260250627A1, “A new bacterial strain Weissella cibaria, a composition comprising it, a pharmaceutical composition for use, a dietary supplement, a probiotic preparation, a bacterial starter culture for making bread, sourdough, bread, a method for the production of bread, a method for microbiological production …” (INSTYTUT BIOCHEMII I BIOFIZVKI PAN, priority 2023, published 2026)
In brackets after ≈: the same amount, converted by molar mass. Where two headings read alike, the source gives them in different places.

System: IBB3394 strain (KKP 2094p)
Assay: Antibiotic sensitivity test with E-test strips (Example 11)
Type: cell-based, Weissella cibaria
Details: 48 h; for MIC: Weissella cibaria, read-out: Minimum inhibitory concentration (MIC) IBB3394
Experimental: The safety assessment of the selected strain of Weissella sp. IBB3394 was carried out by testing antibiotic susceptibility using E-test strips (bioMerieux) in accordance with the manufacturer's recommendations. The tested strain was seeded on IST-MRS solid medium and incubated at 30° C. in aerobic conditions. […] Antibiotic strips were placed on the surface of the plate and the plates were incubated at 30° C. for 48 h in aerobic conditions.

[1] = E-test strips, IST-MRS, 30° C., aerobic

## NC[C@H]1O[C@H](O[C@H]2[C@H](O)[C@@H](O[C@H]3O[C@H](CO)[C@@H](O)[C@H](N)[C@H]3O)[C@H](N)C[C@@H]2N)[C@H](O)[C@@H](O)[C@@H]1O [KM, kanamycin]
[1]
  MIC: 16 µg/mL (≈ 33 µM)

## gentamicin [GM]
[1]
  Minimum inhibitory concentration (MIC) IBB3394: 4 µg/mL

## CCC[C@@H]1C[C@@H](C(=O)N[C@@H]([C@H]2O[C@H](SC)[C@H](O)[C@@H](O)[C@H]2O)[C@H](C)Cl)N(C)C1 [CM, clindamycin]
[1]
  MIC: 0.016 µg/mL (≈ 0.0376 µM)

## [H]/N=C(/N)N[C@H]1[C@H](O)[C@@H](O)[C@H](O[C@@H]2O[C@@H](C)[C@](O)(C=O)[C@H]2O[C@@H]2O[C@@H](CO)[C@H](O)[C@@H](O)[C@@H]2NC)[C@@H](N/C(N)=N\[H])[C@@H]1O [SM, streptomycin]
[1]
  MIC: 8 µg/mL (≈ 13.8 µM)

## CC1(C)S[C@@H]2[C@H](NC(=O)[C@H](N)c3ccccc3)C(=O)N2[C@H]1C(=O)O [AM, ampicillin]
[1]
  MIC: 0.38 to 0.5 µg/mL (≈ 1.09 to 1.43 µM)

## CN(C)[C@@H]1C(O)=C(C(N)=O)C(=O)[C@@]2(O)C(O)=C3C(=O)c4c(O)cccc4[C@@](C)(O)[C@H]3C[C@@H]12 [TC, tetracycline]
[1]
  MIC: 2 µg/mL (≈ 4.5 µM)

## CC[C@H]1OC(=O)[C@H](C)[C@@H](O[C@H]2C[C@@](C)(OC)[C@@H](O)[C@H](C)O2)[C@H](C)[C@@H](O[C@@H]2O[C@H](C)C[C@H](N(C)C)[C@H]2O)[C@](C)(O)C[C@@H](C)C(=O)[C@H](C)[C@@H](O)[C@]1(C)O [EM, erythromycin]
[1]
  MIC: 0.094 µg/mL (≈ 0.128 µM)

## O=C(N[C@H](CO)[C@H](O)c1ccc([N+](=O)[O-])cc1)C(Cl)Cl [CL, chloramphenicol]
[1]
  MIC: 2 to 3 µg/mL (≈ 6.19 to 9.28 µM)

## CN[C@H](CC(C)C)C(=O)N[C@H]1C(=O)N[C@@H](CC(N)=O)C(=O)N[C@H]2C(=O)N[C@H]3C(=O)N[C@H](C(=O)N[C@H](C(=O)O)c4cc(O)cc(O)c4-c4cc3ccc4O)[C@H](O)c3ccc(c(Cl)c3)Oc3cc2cc(c3O[C@@H]2O[C@H](CO)[C@@H](O)[C@H](O)[C@H]2O[C@H]2C[C@](C)(N)[C@H](O)[C@H](C)O2)Oc2ccc(cc2Cl)[C@H]1O [VA, vancomycin]
  MIC: > 256 µg/mL
